ChEMBL document CHEMBL1765077, “Nonterpenoid C15 acetogenins from Laurencia marilzae” (2011)

Key:
Format in all cases: functional
[1] = test system: T47D; experiment: Antiproliferative activity against human T47D cells after 48 hrs
[2] = test system: A2780; experiment: Antiproliferative activity against human A2780 cells after 48 hrs; details: A2780, 48 h
[3] = test system: WiDr; experiment: Antiproliferative activity against human WiDr cells after 48 hrs
[4] = test system: HBL-100; experiment: Antiproliferative activity against human HBL100 cells after 48 hrs; details: HBL-100, 48 h
[5] = test system: HeLa; experiment: Antiproliferative activity against human HeLa cells after 48 hrs
[6] = test system: SW1573; experiment: Antiproliferative activity against human SW1573 cells after 48 hrs; details: SW1573, 48 h

Measured: GI50

COC(=O)/C=C\[C@H]1C[C@H]2O[C@@H](C[C@H]2Cl)[C@@H](Br)C[C@H]2O[C@@H]2[C@H](C)O1
> 10 µg/mL: all assays above

C[C@@H]1O[C@@H](C=C=CBr)C[C@H]2O[C@@H](C[C@H]2Cl)[C@@H](Br)C[C@H]2O[C@H]12
> 10 µg/mL: all assays above

C/C=C/[C@H]1C/C=C\C[C@@H](Cl)[C@@H](C[C@H](C=C=CBr)OC(C)=O)O1
> 10 µg/mL: all assays above

C#C/C=C\CC(O)C(Cl)C/C=C\CC(Cl)C(Br)CC (mixture of isomers)
> 10 µg/mL: all assays above

C/C=C/[C@H]1C/C=C\C[C@@H](Cl)[C@@H](C[C@@H](O)C=C=CBr)O1 [MARILZALLENE]
> 10 µg/mL: all assays above

C[C@H]1/C=C/C[C@H](Br)[C@@H]2C[C@@H](Cl)[C@@H](C[C@H](C=C=CBr)O1)O2 [OBTUSALLENE IV]
> 10 µg/mL: all assays above
